Laboratory results from article PMC7558535, “In Vitro Metabolism of DWP16001, a Novel Sodium-Glucose Cotransporter 2 Inhibitor, in Human and Animal Hepatocytes” (Pharmaceutics, 2020).

What was measured:
Type in all cases: in vitro ADME
[1] = Metabolic stability in monkey hepatocytes; details: pooled cryopreserved hepatocytes, monkey hepatocytes
Description: (§1) To evaluate the metabolic stability of DWP16001 in human, dog, monkey, mouse, and rat hepatocytes, pooled cryopreserved hepatocytes were carefully thawed in recovery medium and resuspended in incubation medium (Krebs–Henseleit buffer for mouse, rat, and human; William’s E media for dog and monkey) to 0.5 × 10^6 cells/mL for mouse, 0.67 × 10^6 cells/mL for rat, and 1.0 × 10^6 cells/mL for dog, monkey, and human in accordance with the manufacturer’s protocols. Then, 60-μL aliquots of these hepatocyte suspensions and an equal volume of 2 μM DWP16001 in incubation medium were mixed in 96-well plates and incubated in triplicate for 0, 30, 60, 90, 120, 180, or 240 min in a CO2 incubator at 37 °C. Reactions were stopped by addition of 120 µL of ice-cold acetonitrile to each well and the cell suspension was sonicated for 5 min at 4 °C, followed by centrifugation at 15,000× g for 10 min at 4 °C after 5 min of sonication. 80-µL aliquots of the supernatants were then vortex-mixed with 20 μL of ice-cold ketoconazole (an internal standard) in acetonitrile and analyzed by LC–tandem mass spectrometry (LC-MS/MS). The peak area ratios of DWP16001 versus internal standard at each sampling point were used for the subsequent calculation. Elimination parameters, including half-life (t1/2), intrinsic clearance (Clint), and hepatic clearance (Clhep) of DWP16001 in mouse, rat, dog, monkey, and human were calculated by the following equations [19]. (1) t1/2min=ln2/−k elimination slope (2) ClintmL/min/kg=ln2/t1/2×mL incubation/hepatocytes 10^6 cells×B×10^6 cells/g liver×A g liver/kg BW (3) ClhepmL/min/kg=Qh×Clint/Qh+Clint (4) Hepatic extraction ratio = Clhep/Qh
(§2) Here, A has values of 87.5, 40, 32, 32, and 25.7; B has values of 135, 117, 215, 120, and 139; Qh (representing hepatic blood flow) has values of 90, 55.2, 30.9, 43.4, and 20.7 mL/min/kg, for mouse, rat, dog, monkey, and human, respectively. Hepatic extraction ratio values of ≤ 0.25, 0.25–0.75, and ≥ 0.75 were regarded as low, moderate, and high, respectively.

[2] = tested on: monkey hepatocytes; assay: Metabolic stability in monkey hepatocytes
Description: as §1, §2

[3] = molecular target: T1, UGT1A4 (Homo sapiens, UniProt P22310); assay: UGT screening, cDNA-expressed UGT1A4
T1 construct: purchased Corning Life Sciences
T1 sequence (P22310 29-534): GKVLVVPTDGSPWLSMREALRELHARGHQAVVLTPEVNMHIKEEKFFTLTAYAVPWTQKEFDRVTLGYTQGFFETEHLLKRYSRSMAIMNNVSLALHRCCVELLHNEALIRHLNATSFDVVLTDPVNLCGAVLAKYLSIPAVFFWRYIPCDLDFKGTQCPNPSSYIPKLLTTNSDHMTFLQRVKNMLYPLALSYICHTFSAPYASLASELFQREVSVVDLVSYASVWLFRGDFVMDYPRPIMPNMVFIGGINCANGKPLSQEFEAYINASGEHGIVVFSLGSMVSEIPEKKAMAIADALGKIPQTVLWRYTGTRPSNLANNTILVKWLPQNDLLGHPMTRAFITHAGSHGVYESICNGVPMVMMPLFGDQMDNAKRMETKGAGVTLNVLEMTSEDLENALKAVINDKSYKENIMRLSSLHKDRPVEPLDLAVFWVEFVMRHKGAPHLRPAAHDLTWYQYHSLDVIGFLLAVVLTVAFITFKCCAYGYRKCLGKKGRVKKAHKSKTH
Description: (§3) To screen for UGT enzymes responsible for glucuronidation of DWP16001, 100 μL of reaction mixtures containing 13 human cDNA-expressed UGT enzymes (1A1, 1A3, 1A4, 1A6, 1A7, 1A8, 1A9, 1A10, 2B4, 2B7, 2B10, 2B15, and 2B17) at 0.1 mg protein/mL, 5 mM UDPGA, 0.025 mg/mL alamethicin, and 25 μM DWP16001 or M1 in 50 mM Tris buffer (pH 7.4) were incubated at 37 °C for 30 min in triplicate. Reactions were stopped by adding 100 μL of ketoconazole (internal standard, 200 ng/mL) in acetonitrile, followed by vortex-mixing and centrifugation (15,000× g, 8 min, 4 °C). The supernatant (75 μL) was diluted with equal volume of 30% acetonitrile and aliquots (5 μL) were injected into an LC-MS/MS system.

[4] = molecular target: T2, UGT2B7 (Homo sapiens, UniProt P16662); assay: UGT screening, cDNA-expressed UGT2B7
T2 construct: purchased Corning Life Sciences
T2 sequence (P16662 24-529): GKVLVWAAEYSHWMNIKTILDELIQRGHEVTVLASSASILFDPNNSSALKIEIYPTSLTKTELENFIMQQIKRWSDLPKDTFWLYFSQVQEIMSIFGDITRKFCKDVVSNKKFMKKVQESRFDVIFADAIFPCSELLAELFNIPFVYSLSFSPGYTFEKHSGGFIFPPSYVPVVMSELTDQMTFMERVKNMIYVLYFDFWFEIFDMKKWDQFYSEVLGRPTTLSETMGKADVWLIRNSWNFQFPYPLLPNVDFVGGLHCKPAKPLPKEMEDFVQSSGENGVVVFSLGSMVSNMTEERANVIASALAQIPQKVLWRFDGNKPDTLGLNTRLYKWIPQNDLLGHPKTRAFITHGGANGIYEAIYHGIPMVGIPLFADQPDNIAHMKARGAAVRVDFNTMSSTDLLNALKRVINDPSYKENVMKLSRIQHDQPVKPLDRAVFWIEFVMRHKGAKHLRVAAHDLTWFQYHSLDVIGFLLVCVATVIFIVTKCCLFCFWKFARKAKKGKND
Description: as §3

CLint scaled at 1 μM [1]: 32.3 mL/min/kg
half-life at 1 μM ([1]; 37 °C, 0-240 min): 2.75 h
Hepatic extraction ratio class ([2]; monkey): moderate (0.25–0.75)
Hepatic extraction ratio ([2]; monkey hepatocytes): 0.43
Clhep ([2]; monkey hepatocytes, well-stirred model): 18.5 mL/min/kg
Substrate of UGT1A4 [3]: substrate
Substrate of UGT2B7 [4]: substrate
SMILES: OC[C@H]1O[C@@H](c2cc(Cc3ccc(C4CC4)cc3)c(Cl)c3c2CCO3)[C@H](O)[C@@H](O)[C@@H]1O [DWP16001, (2S,3R,4R,5S,6R)-2-(7-chloro-6-(4-cyclopropylbenzyl)-2,3-dihydrobenzofuran-4-yl)-6-(hydroxymethyl)tetrahydro-2H-pyran-3,4,5-triol]
